Reference: patent publication US20140296255A1, “LYSINE DEMETHYLASE INHIBITORS FOR THROMBOSIS AND CARDIOVASCULAR DISEASES” (ORYZONG GENOMICS, S.A., priority 2011, published 2014)
Where two headings read alike, the source gives them in different places.

Experiments:
[1] = target: T1, Human recombinant monoamine oxidase MAO-A (Homo sapiens, UniProt P21397); assay: MAO-A inhibition, kynuramine fluorescence assay; format: biochemical
T1 construct: purchased Sigma Aldrich
T1 sequence (P21397 1-527): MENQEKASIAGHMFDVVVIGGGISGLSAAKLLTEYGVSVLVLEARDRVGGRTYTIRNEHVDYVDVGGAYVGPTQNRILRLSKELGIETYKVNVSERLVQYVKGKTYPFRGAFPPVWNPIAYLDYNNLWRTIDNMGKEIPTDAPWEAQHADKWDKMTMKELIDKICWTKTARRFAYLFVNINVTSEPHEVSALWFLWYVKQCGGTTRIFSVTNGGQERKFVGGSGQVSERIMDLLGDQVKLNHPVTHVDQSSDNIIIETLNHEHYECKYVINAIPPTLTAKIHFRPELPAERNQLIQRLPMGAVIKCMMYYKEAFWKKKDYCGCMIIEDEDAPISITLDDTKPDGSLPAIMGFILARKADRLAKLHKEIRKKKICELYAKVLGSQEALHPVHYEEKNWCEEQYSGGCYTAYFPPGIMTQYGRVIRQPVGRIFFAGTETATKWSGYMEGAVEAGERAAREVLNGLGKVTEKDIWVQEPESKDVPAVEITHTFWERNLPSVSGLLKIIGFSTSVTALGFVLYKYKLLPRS
From the text: (§1) Human recombinant monoamine oxidase proteins MAO-A and MAO-B were purchased from Sigma Aldrich. MAOs catalyze the oxidative deamination of primary, secondary and tertiary amines. In order to monitor MAO enzymatic activities and/or their inhibition rate by inhibitor(s) of interest, a fluorescent-based (inhibitor)-screening assay was set up. 3-(2-Aminophenyl)-3-oxopropanamine (kynuramine dihydrobromide, Sigma Aldrich), a non fluorescent compound was chosen as a substrate. Kynuramine is a non-specific substrate for both MAOs activities. While undergoing oxidative deamination by MAO activities, kynuramine is converted into 4-hydroxyquinoline (4-HQ), a resulting fluorescent product.
(§2) The monoamine oxidase activity was estimated by measuring the conversion of kynuramine into 4-hydroxyquinoline. Assays were conducted in 96-well black plates with clear bottom (Corning) in a final volume of 100 μL. The assay buffer was 100 mM HEPES, pH 7.5. Each experiment was performed in duplicate within the same experiment.
(§3) Briefly, a fixed amount of MAO (0.25 μg for MAO-A and 0.5 μg for MAO-B) was incubated on ice for 15 minutes in the reaction buffer, in the absence and/or in the presence of various concentrations of inhibitor (e.g., from 0 to 50 μM, depending on the inhibitor strength).
(§4) After leaving the enzyme(s) interacting with the inhibitor, 60 to 90 μM of kynuramine was added to each reaction for MAO-B and MAO-A assay respectively, and the reaction was left for one hour at 37° C. in the dark. The oxidative deamination of the substrate was stopped by adding 50 μL (v/v) of NaOH 2N. The conversion of kynuramine to 4-hydroxyquinoline, was monitored by fluorescence (excitation at 320 nm, emission at 360 nm) using a microplate reader (Infinite 200, Tecan). Arbitrary units were used to measure levels of fluorescence produced in the absence and/or in the presence of inhibitor.
(§5) The Ki (IC50) of each inhibitor was determined at Vmax/2.

platelets = assay: Platelet levels in mice after five once daily i.p. injections; format: in vivo, mice (Hsd:Athymic Nude-Foxnlnu); conditions: blood 60 minutes after last administration
Procedure: On the fifth day, 60 minutes after the administration, mice were sacrificed and blood was collected in sodium citrate-containing tubes for hemogram analysis. […] Platelet levels were determined in a standard hematology analyzer (Abacus Junior Vet, from Diatron) following the manufacturer's instructions.
(§6) 20% 2-hydroxypropyl-j3-cyclodextrin in H2O was used as a vehicle. When necessary, 10% DMSO was also added in the vehicle. Each day, compounds were administered in a single intraperitoneal injection with administration volumes of 15 ml/kg.
(§7) Mice strain was Hsd:Athymic Nude-Foxnlnu. Animals were maintained in air and temperature controlled cages with regular supply of water and food.

[2] = system: H3K4 methylation in SH-SY5Y cells; assay: Western blot for dimethylated H3K4 in SH-SY5Y cells; format: cell-based
From the text: B-actin was used as a loading control.

[3] = target: T2, Human recombinant LSD1 protein (Homo sapiens, UniProt O60341); assay: LSD1 demethylase inhibition, Amplex Red peroxide/peroxidase-coupled assay; format: biochemical; conditions: further, more elaborate determination (Table 1)
T2 construct: purchased BPS Bioscience Inc
From the text: Compounds for use in the methods of the invention can be identified by their ability to inhibit LSD1. The ability of compounds to inhibit LSD1 can be tested as follows. Human recombinant LSD1 protein was purchased from BPS Bioscience Inc. In order to monitor LSD1 enzymatic activity and/or its inhibition rate by the LSD1 inhibitor(s) of interest, di-methylated H3-K4 peptide (Millipore) was chosen as a substrate. The demethylase activity was estimated, under aerobic conditions, by measuring the release of H2O2 produced during the catalytic process, using the Amplex® Red peroxide/peroxidase-coupled assay kit (Invitrogen).
Within the experiment, each concentration of inhibitor was tested in duplicate. […] The enzymatic reactions were set up in a 50 mM sodium phosphate, pH 7.4 buffer. At the end of the incubation, Amplex® Red reagent and horseradish peroxidase (HPR) solution were added to the reaction according to the recommendations provided by the supplier (Invitrogen), and left to incubate for 30 extra minutes at room temperature in the dark. A 1 μM H2O2 solution was used as a control of the kit efficiency. The conversion of the Amplex® Red reagent to resorufin due to the presence of H2O2 in the assay, was monitored by fluorescence (excitation at 540 nm, emission at 590 nm) using a microplate reader (Infinite 200, Tecan). Arbitrary units were used to measure level of H2O2 produced in the absence and/or in the presence of inhibitor.
The maximum demethylase activity of LSD1 was obtained in the absence of inhibitor and corrected for background fluorescence in the absence of LSD1. The Ki (IC50) of each inhibitor was estimated at half of the maximum activity.

White Blood Cells = assay: White blood cell levels in mice after five once daily injections; format: in vivo, mice (Hsd:Athymic Nude-Foxnlnu); conditions: five consecutive days
Procedure: (§8) On the fifth day, 60 minutes after the administration, mice were sacrificed and blood was collected in sodium citrate-containing tubes for hemogram analysis. Platelet levels were determined and referred as % of platelets compared with the levels found in mice treated with vehicle. Platelet levels were determined in a standard hematology analyzer (Abacus Junior Vet, from Diatron) following the manufacturer's instructions.
as §6, §7
(§9) Measurements of all blood cell types were conducted in the same manner as described above for platelets. Data in the table above are expressed as the % of cells vs vehicle.

Granulocytes = assay: Granulocyte levels in mice after five once daily injections; format: in vivo, mice (Hsd:Athymic Nude-Foxnlnu); conditions: five consecutive days
Procedure: as §8, §6, §7, §9

Lymphocytes = assay: Lymphocyte levels in mice after five once daily injections; format: in vivo, mice (Hsd:Athymic Nude-Foxnlnu); conditions: five consecutive days
Procedure: as §8, §6, §7, §9

Red blood cells = assay: Red blood cell levels in mice after five once daily injections; format: in vivo, mice (Hsd:Athymic Nude-Foxnlnu); conditions: five consecutive days
Procedure: as §8, §6, §7, §9

[4] = target: T3, Human recombinant monoamine oxidase MAO-B (Homo sapiens, UniProt P27338); assay: MAO-B inhibition, kynuramine fluorescence assay; format: biochemical; conditions: further, more elaborate determination (Table 1)
T3 construct: purchased Sigma Aldrich
T3 sequence (P27338 1-520): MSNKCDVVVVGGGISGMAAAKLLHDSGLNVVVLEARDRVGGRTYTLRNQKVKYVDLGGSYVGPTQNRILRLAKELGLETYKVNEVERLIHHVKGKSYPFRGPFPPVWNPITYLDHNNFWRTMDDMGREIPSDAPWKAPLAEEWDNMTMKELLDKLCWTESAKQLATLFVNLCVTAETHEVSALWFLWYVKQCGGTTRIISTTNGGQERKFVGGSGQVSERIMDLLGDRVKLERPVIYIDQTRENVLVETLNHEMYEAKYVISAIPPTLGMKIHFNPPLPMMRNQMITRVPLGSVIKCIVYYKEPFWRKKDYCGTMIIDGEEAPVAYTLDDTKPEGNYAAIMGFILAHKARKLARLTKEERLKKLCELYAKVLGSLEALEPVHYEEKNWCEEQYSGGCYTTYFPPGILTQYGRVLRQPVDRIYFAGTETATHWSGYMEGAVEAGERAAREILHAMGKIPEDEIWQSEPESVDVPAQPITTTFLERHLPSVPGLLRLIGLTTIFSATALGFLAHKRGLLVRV
From the text: as §1, §2, §3, §4, §5

[5] = further, more elaborate determination (Table 1), read-out: MAO-A IC50
[6] = 10 mg/kg i.p. once daily for five days
[7] = 20 mg/kg i.p. once daily for five days
[8] = 40 mg/kg i.p. once daily for five days
[9] = 3 mg/kg i.p. once daily for five days
[10] = 30 mg/kg i.p. once daily for five days

Row | Compound | IC50 [1, 5] [nM] | % platelets vs. Vehicle (platelets; [6]) [%] | % platelets vs. Vehicle (platelets; [7]) [%] | % platelets vs. Vehicle (platelets; [8]) [%] | IC50 [3] [nM] | IC50 [4] [nM] | % platelets vs. Vehicle (platelets; [10]) [%] | further results
1 | NC(=O)CN[C@H]1C[C@@H]1c1ccc(OCc2ccccc2)cc1 (racemic) [Compound 1] | > 2000 | 66 | 55 | 34 | < 200 | – | – | % platelets vs. Vehicle (platelets; 5 mg/kg i.p. once daily for five days): 91%; potency at increasing global dimethylated H3K4 levels as compared to tranylcypromine ([2]; Dual-1 at 100 μM vs parnate at 250 μM): ten-fold or more potent; H3K4 methylation (western blot) ([2]; compound at 100 μM, one, two, and three days): increases H3K4 methylation in cells in a time dependent manner
2 | CN1CCN(C(=O)CN[C@H]2C[C@@H]2c2ccc(OCc3ccccc3)cc2)CC1 (racemic) [Compound 3] | > 2000 | 5 | – | – | – | – | – | White Blood Cells, % of cells vs vehicle (White Blood Cells; 1 mg/kg): 86%; White Blood Cells, % of cells vs vehicle (White Blood Cells; 3 mg/kg): 76%; White Blood Cells, % of cells vs vehicle (White Blood Cells; 10 mg/kg): 29%; Granulocytes, % of cells vs vehicle (Granulocytes; 1 mg/kg): 69%; Granulocytes, % of cells vs vehicle (Granulocytes; 3 mg/kg): 63%; Granulocytes, % of cells vs vehicle (Granulocytes; 10 mg/kg): 23%; % platelets vs. Vehicle (platelets; 1 mg/kg i.p. once daily for five days): 46%; % platelets vs. Vehicle (platelets; [9]): 16%; Lymphocytes, % of cells vs vehicle (Lymphocytes; 1 mg/kg): 115%; Lymphocytes, % of cells vs vehicle (Lymphocytes; 3 mg/kg): 90%; Lymphocytes, % of cells vs vehicle (Lymphocytes; 10 mg/kg): 35%; Red blood cells, % of cells vs vehicle (Red blood cells; 1 mg/kg): 103%; Red blood cells, % of cells vs vehicle (Red blood cells; 3 mg/kg): 101%; Red blood cells, % of cells vs vehicle (Red blood cells; 10 mg/kg): 92%
3 | N[C@H]1CCN(CCN[C@H]2C[C@@H]2c2ccc(-c3cccc(C(F)(F)F)c3)cc2)C1 (racemic) [Compound 4] | > 2000 | 19 | – | – | < 100 | > 2000 | 7 | % platelets vs. Vehicle (platelets; [9]): 87%; % platelets vs. Vehicle (platelets; 9 mg/kg i.p. once daily for five days): 30%; % platelets vs. Vehicle (platelets; 18 mg/kg i.p. once daily for five days): 19%; % platelets vs. Vehicle (platelets; 36 mg/kg i.p. once daily for five days): 11%
4 | N[C@H]1C[C@@H]1c1ccc(-c2cccc(C(F)(F)F)c2)nc1 (racemic) [Compound 6] | – | 87 | – | – | – | – | 63 | –
5 | N[C@H]1C[C@@H]1c1ccc(-c2cccc(O)c2)cc1 (racemic) [Compound 7] | > 200 | – | – | – | < 70 | > 1000 | – | IC50 ([1]; initial determination, read-out: IC50 for MAO-A): > 1000 nM; % platelets vs. Vehicle (platelets; 17 mg/kg i.p. once daily for five days): 56%; % platelets vs. Vehicle (platelets; 34 mg/kg i.p. once daily for five days): 46%; % platelets vs. Vehicle (platelets; 52 mg/kg i.p. once daily for five days): 63%
6 | CS(=O)(=O)Nc1cccc(-c2ccc([C@H]3C[C@@H]3N)cn2)c1 (racemic) [Compound 8] | – | – | 68 | 44 | – | – | – | –
7 | CC(C)S(=O)(=O)Nc1cccc(-c2ccc([C@H]3C[C@@H]3N)cc2)c1 (racemic) [Compound 9] | > 1000 | – | – | – | < 70 | > 10000 | 10 | –
8 | NC(=O)CN[C@H]1C[C@@H]1c1ccc(OCc2ccccc2)cc1 (single isomer, unassigned) [Compound 2] | > 2000 | – | 35 | 27 | < 200 | – | – | % platelets vs. Vehicle (platelets; 60 mg/kg i.p. once daily for five days): 16%
